Source: PubChem BioAssay (NCI)
“And” between values parts separate entries of the source, which are not always exact repeats. Equal entries are not always repeated.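 Step 1: Grow cells in 96-well plates. Step 2: Expose to compound for 48 hours at 5 concentrations. Step 3: Interpolate endpoints linearly; if unreached, use highest concentration. Here, GI50 denotes the concentration required for 50% inhibition of growth. TGI: total growth inhibition.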

Tests used:
Assay in all cases: growth of human tumour cells (NCI), 48 h
A549 NSCLC = test system: A549 NSCLC
MCF7 breast = test system: MCF7 breast
EKVX NSCLC = test system: EKVX NSCLC
HT29 colon = test system: HT29 colon
SR leukemia = test system: SR leukemia
OVCAR-8 ovarian = test system: OVCAR-8 ovarian
HCC-2998 colon = test system: HCC-2998 colon
NCI-H522 lung = test system: NCI-H522 lung
786-0 renal = test system: 786-0 renal
NCI-H460 lung = test system: NCI-H460 lung

Row | SMILES | GI50 (A549 NSCLC) | TGI (A549 NSCLC) | TGI (MCF7 breast) | TGI (EKVX NSCLC) | TGI (HT29 colon) | GI50 (SR leukemia) | TGI (SR leukemia) | GI50 (OVCAR-8 ovarian) | TGI (OVCAR-8 ovarian) | TGI (HCC-2998 colon) | TGI (NCI-H522 lung) | GI50 (786-0 renal) | TGI (786-0 renal) | TGI (NCI-H460 lung) | GI50 (MCF7 breast) | GI50 (EKVX NSCLC) | GI50 (HT29 colon) | GI50 (HCC-2998 colon) | GI50 (NCI-H522 lung) | GI50 (NCI-H460 lung)
1 | CC(=O)OCC1OC(n2c(-c3ccccc3)c(C)c(C)c(C#N)c2=S)C(OC(C)=O)C(OC(C)=O)C1OC(C)=O (configuration not stated) | 25.7 µM and > 100 µM | > 100 µM | > 100 µM | 46.9 µM and 77 µM | > 100 µM | 32.3 µM and 95.3 µM | > 100 µM | 17.6 µM and > 100 µM | > 100 µM | > 100 µM | > 100 µM | 6.84 µM and 23.2 µM | 19.3 µM and 56.1 µM | > 100 µM | – | – | – | – | – | –
2 | CCCCCCCCCC(CCCC(O)CC(=O)O)OC1OC(COC2OC(C)C(O)C(O)C2O)C(O)C(O)C1OC1OC(CO)C(O)C(O)C1OC1OC(C)C(O)C(O)C1O (configuration not stated) | > 40 µM | > 40 µM | > 40 µM | > 40 µM | > 40 µM | > 40 µM | > 40 µM | > 40 µM | > 40 µM | > 40 µM | > 40 µM | > 40 µM | > 40 µM | > 40 µM | > 40 µM | > 40 µM | > 40 µM | > 40 µM | > 40 µM | > 40 µM
3 | C=C(CN1CCN(c2cccc(F)c2)CC1)c1ccc(C(=O)Nc2ccccc2N)cc1 | 3.24 µM | 16.3 µM | > 100 µM | > 100 µM | 4.06 µM | – | – | 1.99 µM | 47.9 µM | 11 µM | 3.88 µM | 1.84 µM | 13 µM | > 100 µM | 0.691 µM | 6.68 µM | 1.09 µM | 2.98 µM | 0.848 µM | 3.95 µM
4 | COc1ccc(Cn2c(Br)c3c(c2-c2cc(OC)c(OC)c(OC)c2)CCc2sc(NC(C)=O)nc2-3)cc1 | 3.92 µM | > 100 µM | > 100 µM | – | 11.1 µM | 2.44 µM | > 100 µM | 4.7 µM | > 100 µM | > 100 µM | 9.22 µM | 4.2 µM | > 100 µM | > 100 µM | 3.32 µM | – | 3.41 µM | 3.58 µM | 2.17 µM | 3.05 µM
5 | O=C1c2cccnc2C(=O)c2c1c(C(=O)OCCN1CCOCC1)c1ccccn21 | 0.0205 µM | 1.17 µM | 0.041 µM | 10.1 µM | 2.31 µM | < 0.01 µM | 1.83 µM | < 0.0168 µM | 9.21 µM | 5.4 µM | 0.0449 µM | 0.0108 µM | 2.22 µM | 1.06 µM | < 0.01 µM | 1.54 µM | 0.316 µM | 0.252 µM | < 0.0109 µM | < 0.01 µM
6 | CCN1CCN(C(=O)[C@]23CCC(C)(C)C[C@@H]2C2=CC[C@@H]4[C@@]5(C)C/C(=C/c6cccnc6)C(=O)C(C)(C)[C@@H]5CC[C@@]4(C)[C@]2(C)CC3)CC1 | 2.62 µM | 13.4 µM | 3.07 µM | 6.48 µM | 4.67 µM | 0.706 µM | 5.1 µM | 2.14 µM | 5.54 µM | 3.12 µM | 3.75 µM | 1.6 µM | 3.08 µM | 2.93 µM | 1.4 µM | 1.9 µM | 1.71 µM | 1.58 µM | 1.61 µM | 1.39 µM
7 | COc1ccc(CNc2nc(NCc3ccc(OC)cc3)c3n[nH]c(C(C)C)c3n2)cc1 | 7.25 µM | > 100 µM | 13.9 µM | 23.8 µM | 10.7 µM | 2.48 µM | 6.17 µM | 12.5 µM | 53.6 µM | 5.99 µM | 4.51 µM | 4.07 µM | 20.6 µM | 31.8 µM | 3.31 µM | 8.09 µM | 1.61 µM | 2.43 µM | 2.26 µM | 2.98 µM
8 | C/C(=N\NC(=O)c1ccncc1)c1ccc(O)cc1O | 5.87 µM | > 100 µM | > 100 µM | > 100 µM | > 100 µM | 4.16 µM | > 100 µM | 2.93 µM | > 100 µM | > 100 µM | – | 5.84 µM | > 100 µM | > 100 µM | 4.92 µM | 2.56 µM | 8.09 µM | 3.59 µM | – | 5 µM
9 | CC(C)Oc1ccc(C(=O)N[C@H](CNC(=O)CN(C)C)Cc2ccc(-c3cn4cccc([C@H](C)O)c4n3)cc2)cc1Cl | 0.0507 µM | 22.1 µM | 19.5 µM | 21.6 µM | 13 µM | – | – | 0.0674 µM | 26.6 µM | 17.3 µM | 0.0698 µM | 0.0578 µM | 17.8 µM | 12.6 µM | 0.0366 µM | 0.0547 µM | 0.035 µM | 0.0695 µM | 0.0229 µM | 0.036 µM
10 | O=[N+]([O-])c1ccc(-c2cn(-c3ccc(Cl)cc3)cn2)cc1 | – | > 100 µM | > 100 µM | > 100 µM | > 100 µM | – | > 100 µM | – | > 100 µM | > 100 µM | 14.4 µM | – | 36.5 µM | > 100 µM | – | – | – | – | – | –
11 | Cc1ccc(NC(=O)c2nc(S(C)=O)oc2-c2ccc(F)cc2)cc1Nc1nccc(-c2cccnc2)n1 (configuration not stated) | 5.15 µM | 17.3 µM | 3.86 µM | 6.65 µM | 3.53 µM | 0.726 µM | 3.79 µM | 2.23 µM | 4.64 µM | 13 µM | 3.04 µM | 2 µM | 3.55 µM | 4.06 µM | 1.87 µM | 2.62 µM | 1.82 µM | 3.91 µM | 1.05 µM | 2.09 µM
12 | CSc1nc2c(c(=O)[nH]1)C(c1ccc(Cl)cc1)C1=C(N2)/C(=C/c2ccc(Cl)cc2)CNC1 (configuration not stated) | 2.21 µM | 5.91 µM | 5.85 µM | – | 5.09 µM | 1.9 µM | 5.87 µM | 2.7 µM | 8.72 µM | 3.57 µM | 4.81 µM | 2.02 µM | 4.46 µM | 7.61 µM | 1.94 µM | – | 2.05 µM | 1.96 µM | 1.85 µM | 2.75 µM
13 | Nc1c(C(=O)Nc2ccccc2)sc2nc3c(cc12)CCCC3 | 0.546 µM | 39.4 µM | > 100 µM | – | > 26.3 µM | 0.36 µM | 19.6 µM | 1.8 µM | > 100 µM | > 37.2 µM | > 25.8 µM | 0.706 µM | 55 µM | > 75.9 µM | 0.355 µM | – | 0.74 µM | 1.99 µM | 0.872 µM | 0.458 µM
